Reference: US9957247B2, “SecA inhibitors and methods of making and using thereof” (Georgia State University Research Foundation, Inc., priority 2012, dated 2018)
Values after ≈ are worked out from the molar mass of the structure shown. Like-named read-outs stand apart in the source and are kept apart here.

Columns and labels:
[1] = test system: B. anthracis Sterne; experiment: microbe, parasite or virus in culture; format: cell-based; settings: for MIC: Bacillus anthracis, read-out: Bacteriostatic MIC95, B. anthracis Sterne
[2] = test system: S. aureus Mu50; experiment: Bacteriostatic effect, S. aureus Mu50; settings: for MIC: Staphylococcus aureus; for Bacteriostatic MIC95, S. aureus Mu50: Table 2
[3] = test system: B. subtilis 168; experiment: Bacteriostatic effect, liquid microdilution, B. subtilis 168; format: cell-based; settings: Bacillus subtilis, Example 2
[4] = molecular target: T1, BsSecA (Bacillus subtilis, UniProt P28366); experiment: cell-based; design: species or system B. subtilis
T1 sequence (P28366 whole entry): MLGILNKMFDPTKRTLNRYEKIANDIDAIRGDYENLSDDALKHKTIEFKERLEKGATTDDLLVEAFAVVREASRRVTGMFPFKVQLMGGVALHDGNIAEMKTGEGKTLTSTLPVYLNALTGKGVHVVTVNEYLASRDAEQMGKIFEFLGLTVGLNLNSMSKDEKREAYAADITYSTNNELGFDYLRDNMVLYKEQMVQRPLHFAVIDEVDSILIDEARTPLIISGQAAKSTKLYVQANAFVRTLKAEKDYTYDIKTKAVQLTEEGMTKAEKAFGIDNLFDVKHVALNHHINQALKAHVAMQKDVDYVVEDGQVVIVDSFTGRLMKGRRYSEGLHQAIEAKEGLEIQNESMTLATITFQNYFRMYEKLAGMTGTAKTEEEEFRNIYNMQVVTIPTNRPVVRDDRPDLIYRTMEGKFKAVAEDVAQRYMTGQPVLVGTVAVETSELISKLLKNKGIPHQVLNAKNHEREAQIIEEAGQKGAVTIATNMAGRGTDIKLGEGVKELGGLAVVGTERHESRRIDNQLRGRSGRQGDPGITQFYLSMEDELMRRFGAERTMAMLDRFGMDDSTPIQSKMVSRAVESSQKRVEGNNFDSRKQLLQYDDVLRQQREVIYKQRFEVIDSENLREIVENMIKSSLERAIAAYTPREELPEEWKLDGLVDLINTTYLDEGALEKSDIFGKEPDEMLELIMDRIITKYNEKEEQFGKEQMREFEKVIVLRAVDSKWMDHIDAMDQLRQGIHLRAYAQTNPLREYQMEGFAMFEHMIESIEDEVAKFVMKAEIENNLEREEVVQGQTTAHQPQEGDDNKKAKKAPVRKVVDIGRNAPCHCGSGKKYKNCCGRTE

[5] = molecular target: T2, EcSecA (Escherichia coli, UniProt P10408); experiment: cell-based
Target sequence in this assay (P10408 whole entry): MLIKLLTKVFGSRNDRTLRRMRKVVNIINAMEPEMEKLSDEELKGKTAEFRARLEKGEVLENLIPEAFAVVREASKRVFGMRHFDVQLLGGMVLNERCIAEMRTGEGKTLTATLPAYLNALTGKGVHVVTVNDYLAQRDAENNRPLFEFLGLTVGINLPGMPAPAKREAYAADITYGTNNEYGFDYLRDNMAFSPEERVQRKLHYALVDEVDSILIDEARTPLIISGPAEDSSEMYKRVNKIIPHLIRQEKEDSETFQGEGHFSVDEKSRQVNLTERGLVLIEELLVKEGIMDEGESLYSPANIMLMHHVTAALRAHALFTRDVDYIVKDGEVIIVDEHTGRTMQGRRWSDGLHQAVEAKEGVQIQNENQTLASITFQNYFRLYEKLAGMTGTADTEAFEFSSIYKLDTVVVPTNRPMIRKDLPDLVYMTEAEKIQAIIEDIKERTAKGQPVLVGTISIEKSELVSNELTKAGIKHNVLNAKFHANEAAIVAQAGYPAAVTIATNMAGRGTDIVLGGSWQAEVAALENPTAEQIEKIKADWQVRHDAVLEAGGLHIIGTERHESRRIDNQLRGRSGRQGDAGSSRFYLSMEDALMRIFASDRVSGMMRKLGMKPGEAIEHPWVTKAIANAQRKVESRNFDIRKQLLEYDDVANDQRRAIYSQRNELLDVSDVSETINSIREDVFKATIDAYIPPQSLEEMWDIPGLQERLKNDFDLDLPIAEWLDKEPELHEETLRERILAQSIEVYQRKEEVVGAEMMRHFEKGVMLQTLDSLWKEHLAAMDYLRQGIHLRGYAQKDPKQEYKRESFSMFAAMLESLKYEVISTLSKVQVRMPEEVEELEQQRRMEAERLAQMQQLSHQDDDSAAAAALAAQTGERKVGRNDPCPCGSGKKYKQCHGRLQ

[6] = molecular target: EcSecA N68 (Escherichia coli, UniProt P10408); experiment: biochemical; format: biochemical, E. coli
Sequence of EcSecA N68 (P10408 1-610): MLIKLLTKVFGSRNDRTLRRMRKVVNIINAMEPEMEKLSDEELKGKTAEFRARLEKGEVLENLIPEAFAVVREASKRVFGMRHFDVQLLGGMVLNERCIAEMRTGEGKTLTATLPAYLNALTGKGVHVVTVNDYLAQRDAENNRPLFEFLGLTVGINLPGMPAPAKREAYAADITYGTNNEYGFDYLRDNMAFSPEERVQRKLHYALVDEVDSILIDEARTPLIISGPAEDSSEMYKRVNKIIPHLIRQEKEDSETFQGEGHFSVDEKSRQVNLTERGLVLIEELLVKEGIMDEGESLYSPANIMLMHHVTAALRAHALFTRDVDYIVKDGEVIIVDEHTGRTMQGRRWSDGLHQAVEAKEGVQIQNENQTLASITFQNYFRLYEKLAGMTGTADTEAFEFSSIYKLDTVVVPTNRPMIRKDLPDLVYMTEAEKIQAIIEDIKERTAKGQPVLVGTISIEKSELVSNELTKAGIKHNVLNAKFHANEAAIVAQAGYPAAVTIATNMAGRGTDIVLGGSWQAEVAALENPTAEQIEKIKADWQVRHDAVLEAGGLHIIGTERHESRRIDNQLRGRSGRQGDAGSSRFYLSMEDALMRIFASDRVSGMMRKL

[7] = test system: S. aureus deletion strains (NorA−, MepA−) and strains (NorA++, MepA++) with over-expressed efflux pumps; experiment: Antimicrobial effect with deletion or over expression of efflux pumps in S. aureus; settings: wild type, NorA−/MepA− and NorA++/MepA++ strains
[8] = molecular target: T2, EcSecA; experiment: biochemical; settings: IC50, Protein Translocation, Table 1
Target sequence in this assay (P0AG99 whole entry): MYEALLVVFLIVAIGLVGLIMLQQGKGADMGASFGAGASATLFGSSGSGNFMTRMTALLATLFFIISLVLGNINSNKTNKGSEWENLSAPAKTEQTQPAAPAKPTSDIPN
Target sequence in this assay (P10408 whole entry): as the sequence (P10408 whole entry) above
Target sequence in this assay (P0AGA2 whole entry, further chain): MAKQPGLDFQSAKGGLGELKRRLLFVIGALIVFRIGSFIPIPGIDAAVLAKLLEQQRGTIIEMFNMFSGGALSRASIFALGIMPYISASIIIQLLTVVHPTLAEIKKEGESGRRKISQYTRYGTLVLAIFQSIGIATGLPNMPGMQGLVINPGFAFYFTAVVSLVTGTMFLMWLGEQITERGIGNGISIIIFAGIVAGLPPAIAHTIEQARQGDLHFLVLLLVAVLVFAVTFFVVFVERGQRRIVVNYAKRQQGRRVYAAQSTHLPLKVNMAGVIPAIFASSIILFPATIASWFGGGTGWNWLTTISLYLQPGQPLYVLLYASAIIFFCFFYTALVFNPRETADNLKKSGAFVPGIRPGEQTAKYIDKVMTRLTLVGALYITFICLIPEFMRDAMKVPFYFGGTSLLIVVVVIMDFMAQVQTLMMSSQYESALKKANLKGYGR
Target sequence in this assay (P0AG96 whole entry, further chain): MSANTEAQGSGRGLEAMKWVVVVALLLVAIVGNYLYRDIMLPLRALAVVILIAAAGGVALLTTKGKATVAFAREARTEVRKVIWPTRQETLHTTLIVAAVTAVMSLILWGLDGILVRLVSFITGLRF

[9] = molecular target: T1, BsSecA; experiment: biochemical; format: biochemical, B. subtilis
[10] = molecular target: MtbSecA (Mycobacterium tuberculosis, UniProt P9WGP5); experiment: cell-based
[11] = molecular target: BaSecA1 (Bacillus anthracis, UniProt Q81X26); experiment: cell-based; settings: IC50, Ion Channel activity, BGaSecA 1
Sequence of BaSecA1 (Q81X26 whole entry, looked up): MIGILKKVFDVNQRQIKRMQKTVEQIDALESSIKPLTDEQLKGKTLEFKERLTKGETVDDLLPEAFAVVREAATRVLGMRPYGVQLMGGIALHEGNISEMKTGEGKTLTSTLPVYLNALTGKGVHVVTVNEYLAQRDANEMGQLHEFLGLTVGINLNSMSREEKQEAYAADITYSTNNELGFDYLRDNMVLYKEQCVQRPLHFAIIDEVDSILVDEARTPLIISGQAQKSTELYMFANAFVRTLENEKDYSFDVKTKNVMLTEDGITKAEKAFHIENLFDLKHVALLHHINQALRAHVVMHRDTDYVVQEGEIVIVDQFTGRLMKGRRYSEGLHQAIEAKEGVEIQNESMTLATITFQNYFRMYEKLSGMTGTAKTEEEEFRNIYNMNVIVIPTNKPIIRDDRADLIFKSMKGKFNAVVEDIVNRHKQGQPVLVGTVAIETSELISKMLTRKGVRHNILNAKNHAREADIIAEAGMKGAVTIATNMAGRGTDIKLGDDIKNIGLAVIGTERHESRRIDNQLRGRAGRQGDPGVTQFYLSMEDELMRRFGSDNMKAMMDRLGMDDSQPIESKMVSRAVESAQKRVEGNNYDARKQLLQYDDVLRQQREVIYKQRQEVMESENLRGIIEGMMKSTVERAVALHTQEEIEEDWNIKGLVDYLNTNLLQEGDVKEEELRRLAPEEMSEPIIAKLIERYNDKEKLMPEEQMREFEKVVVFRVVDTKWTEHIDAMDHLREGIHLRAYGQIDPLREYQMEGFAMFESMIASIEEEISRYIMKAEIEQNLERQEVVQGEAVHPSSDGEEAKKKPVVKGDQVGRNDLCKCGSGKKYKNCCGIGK

[12] = molecular target: SpSecA (Streptococcus pyogenes, UniProt Q99Y96); format: cell-based; settings: read-out: IC50, Ion Channel activity, SpSecA
Sequence of SpSecA (Q99Y96 whole entry): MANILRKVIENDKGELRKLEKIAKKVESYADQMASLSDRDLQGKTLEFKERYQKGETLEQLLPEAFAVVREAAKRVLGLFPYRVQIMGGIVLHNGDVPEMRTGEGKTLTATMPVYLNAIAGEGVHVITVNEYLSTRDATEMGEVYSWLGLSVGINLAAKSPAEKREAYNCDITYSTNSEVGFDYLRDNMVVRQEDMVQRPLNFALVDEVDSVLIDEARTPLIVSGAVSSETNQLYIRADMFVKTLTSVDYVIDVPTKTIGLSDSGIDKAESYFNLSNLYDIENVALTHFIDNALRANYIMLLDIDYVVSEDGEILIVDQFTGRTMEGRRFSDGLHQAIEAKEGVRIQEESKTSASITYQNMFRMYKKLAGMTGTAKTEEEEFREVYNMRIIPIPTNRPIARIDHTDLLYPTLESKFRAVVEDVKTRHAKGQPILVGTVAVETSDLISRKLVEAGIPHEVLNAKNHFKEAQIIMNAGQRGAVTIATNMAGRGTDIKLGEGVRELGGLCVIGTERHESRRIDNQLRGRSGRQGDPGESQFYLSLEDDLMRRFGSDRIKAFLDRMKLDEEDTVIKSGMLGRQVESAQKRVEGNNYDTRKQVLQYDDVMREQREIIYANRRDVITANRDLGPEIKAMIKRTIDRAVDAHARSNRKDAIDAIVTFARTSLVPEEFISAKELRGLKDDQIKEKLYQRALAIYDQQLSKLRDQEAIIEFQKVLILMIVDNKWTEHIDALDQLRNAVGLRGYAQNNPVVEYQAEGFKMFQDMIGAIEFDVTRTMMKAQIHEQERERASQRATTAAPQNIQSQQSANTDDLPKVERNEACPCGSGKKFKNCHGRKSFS

[13] = molecular target: BsSecA2; settings: read-out: IC50, Intrinsic ATPase, BsSecA2; Table 1
[14] = molecular target: MsSecA (Mycolicibacterium smegmatis, UniProt P71533); experiment: SecA-liposomes ion-channel activity in oocytes, MsSecA; format: cell-based; settings: Table 1
[15] = test system: S. pyogenes, MGAS5005; experiment: MIC95, S. pyogenes MGAS5005; format: cell-based; settings: Streptococcus pyogenes, MGAS5005; read-out: MIC95, S. pyogenes MGAS5005
[16] = molecular target: T2, EcSecA; experiment: biochemical; settings: IC50, Translocation ATPase, Table 1
Target sequence in this assay (P0AG99 whole entry): as the sequence (P0AG99 whole entry) above
Target sequence in this assay (P10408 whole entry): as the sequence (P10408 whole entry) above
Target sequence in this assay (P0AGA2 whole entry, further chain): as the sequence (P0AGA2 whole entry, further chain) above
Target sequence in this assay (P0AG96 whole entry, further chain): as the sequence (P0AG96 whole entry, further chain) above

[17] = molecular target: T3, SaSecA1 (Staphylococcus aureus, UniProt O06446); experiment: cell-based
T3 sequence (O06446 1-843): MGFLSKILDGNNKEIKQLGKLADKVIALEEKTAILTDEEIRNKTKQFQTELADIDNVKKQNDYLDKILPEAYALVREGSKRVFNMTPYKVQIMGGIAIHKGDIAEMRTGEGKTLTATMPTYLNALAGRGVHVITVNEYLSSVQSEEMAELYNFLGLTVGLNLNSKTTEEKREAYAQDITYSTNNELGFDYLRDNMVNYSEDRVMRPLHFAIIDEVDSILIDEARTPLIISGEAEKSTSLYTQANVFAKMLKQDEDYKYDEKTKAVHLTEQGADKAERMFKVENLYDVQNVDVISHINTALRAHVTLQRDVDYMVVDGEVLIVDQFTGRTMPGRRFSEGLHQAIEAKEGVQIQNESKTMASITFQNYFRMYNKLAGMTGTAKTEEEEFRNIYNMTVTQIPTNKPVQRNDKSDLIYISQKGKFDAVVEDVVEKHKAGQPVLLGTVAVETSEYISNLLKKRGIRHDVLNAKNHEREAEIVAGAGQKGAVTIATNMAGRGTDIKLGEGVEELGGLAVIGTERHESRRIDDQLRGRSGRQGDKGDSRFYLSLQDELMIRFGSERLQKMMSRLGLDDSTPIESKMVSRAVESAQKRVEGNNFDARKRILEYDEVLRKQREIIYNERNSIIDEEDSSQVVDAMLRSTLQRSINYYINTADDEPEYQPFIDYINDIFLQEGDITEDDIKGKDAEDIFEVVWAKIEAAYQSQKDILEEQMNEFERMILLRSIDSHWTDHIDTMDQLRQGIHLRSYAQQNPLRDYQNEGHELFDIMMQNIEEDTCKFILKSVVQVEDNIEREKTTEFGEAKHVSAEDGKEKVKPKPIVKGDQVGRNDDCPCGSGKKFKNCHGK

[18] = molecular target: T2, EcSecA; experiment: biochemical; design: species or system E. coli; settings: IC50, Intrinsic ATPase, Table 1, full-length EcSecA
Target sequence in this assay (P10408 whole entry): as the sequence (P10408 whole entry) above

[19] = molecular target: T4, SaSecA2 (Staphylococcus aureus, UniProt Q2FUW6); experiment: ATPase activity assay (malachite green), SaSecA2; settings: IC50, Intrinsic ATPase, SaSecA2, Table 1
T4 sequence (Q2FUW6 1-796): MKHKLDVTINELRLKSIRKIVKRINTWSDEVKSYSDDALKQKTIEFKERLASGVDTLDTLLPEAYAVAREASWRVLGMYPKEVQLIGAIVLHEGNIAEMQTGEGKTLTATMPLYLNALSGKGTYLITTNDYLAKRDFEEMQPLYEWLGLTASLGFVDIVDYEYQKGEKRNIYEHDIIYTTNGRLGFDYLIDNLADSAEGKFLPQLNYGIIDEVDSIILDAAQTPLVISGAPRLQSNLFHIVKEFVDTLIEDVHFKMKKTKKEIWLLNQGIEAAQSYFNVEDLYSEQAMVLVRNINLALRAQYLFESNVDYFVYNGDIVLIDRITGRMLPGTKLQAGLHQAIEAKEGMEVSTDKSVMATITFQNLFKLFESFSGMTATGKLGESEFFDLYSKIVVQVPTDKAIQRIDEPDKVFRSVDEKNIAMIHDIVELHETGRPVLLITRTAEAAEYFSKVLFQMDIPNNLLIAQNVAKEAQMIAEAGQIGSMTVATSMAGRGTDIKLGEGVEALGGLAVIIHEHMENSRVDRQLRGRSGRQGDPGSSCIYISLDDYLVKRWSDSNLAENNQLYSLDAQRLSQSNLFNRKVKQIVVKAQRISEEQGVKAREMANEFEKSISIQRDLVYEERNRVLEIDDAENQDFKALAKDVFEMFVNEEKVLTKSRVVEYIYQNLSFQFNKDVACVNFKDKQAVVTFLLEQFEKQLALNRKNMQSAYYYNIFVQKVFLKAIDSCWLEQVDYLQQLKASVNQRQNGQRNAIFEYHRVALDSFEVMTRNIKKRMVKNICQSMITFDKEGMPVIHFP

[20] = MU50, read-out: Bacteriostatic MIC95, S. aureus Mu50, Table 2
[21] = MU50, read-out: Bacteriostatic effect MIC, S. aureus Mu50, Table 10 and Example 4
[22] = Ion channel, IC50, BsSecA, Table 5
[23] = Ion channel, IC50, EcSecA, Table 5
[24] = MU50, read-out: MIC95 against drug resistant S. aureus Mu50

CC1(C)S[C@@H]2[C@H](NC(=O)[C@H](N)c3ccccc3)C(=O)N2[C@H]1C(=O)O [Ampicillin]
MIC [1]: > 20 mg/L
MIC [2, 20]: 7.8 mg/L
MIC [2, 21]: 1000 mg/L

O=C(N[C@H](CO)[C@H](O)c1ccc([N+](=O)[O-])cc1)C(Cl)Cl [Chloramphenic]
Bacteriostatic MIC95, B. anthracis Sterne [1]: 10 mg/L
Bacteriostatic MIC95, S. aureus Mu50 [2]: >40 mg/L

Oc1ccc2c(c1)Oc1cc(O)ccc1C2C1CCCC1 [Compound 22a, 9-Cyclopentyl-9H-xanthene-3,6-diol]
MIC [3]: 25 µM (≈ 7.06 µg/mL)
IC50 [4, 22]: 3 µM
IC50 [5, 23]: 3.4 µM

CC(C)C1c2ccc(O)cc2Oc2cc(O)ccc21 [Compound 22b, 9-Isopropyl-9H-xanthene-3,6-diol]
MIC [3]: 75 µM (≈ 19.2 µg/mL)
IC50 [4, 22]: 4.9 µM
IC50 [5]: 4.3 µM

CCCCCCC1c2ccc(O)cc2Oc2cc(O)ccc21 [Compound 22c, 9-Hexyl-9H-xanthene-3,6-diol]
MIC [3]: 13 µM (≈ 3.88 µg/mL)
IC50 [4, 22]: 2.5 µM
IC50 [5, 23]: 2.3 µM

Oc1c(Br)cc2c(c1Br)Oc1c(cc(Br)c(O)c1Br)C2C1CCCC1 [Compound 23a, 2,4,5,7-Tetrabromo-9-cyclopentyl-9H-xanthene-3,6-diol]
MIC [3]: 22 µM (≈ 13.2 µg/mL)
IC50 [4, 22]: 2.4 µM
IC50 [5]: 2.3 µM

Oc1c(I)cc2c(c1I)Oc1c(cc(I)c(O)c1I)C2C1CCCC1 [Compound 23b, 9-Cyclopentyl-2,4,5,7-tetraiodo-9H-xanthene-3,6-diol]
MIC [3]: 6 µM (≈ 4.72 µg/mL)
IC50 [4, 22]: 3.8 µM
IC50 [5]: 2.5 µM

Oc1cc2c(cc1I)C(C1CCCC1)c1cc(I)c(O)c(I)c1O2 (stereo not drawn) [Compound 23c]
MIC [3]: 6 µM (≈ 3.96 µg/mL)
IC50 [4, 22]: 2.8 µM
IC50 [5]: 2.2 µM

CC(C)C1c2cc(I)c(O)c(I)c2Oc2c1cc(I)c(O)c2I [Compound 23d, 2,4,5,7-Tetraiodo-9-isopropyl-9H-xanthene-3,6-diol]
MIC [3]: 6 µM (≈ 4.56 µg/mL)
IC50 [4, 22]: 2.5 µM
IC50 [5]: 2.8 µM

CN(C)c1ccc2c(c1)Oc1cc(N(C)C)ccc1C2C1CCCC1 [Compound 30, 9-Cyclopentyl-N3,N3,N6,N6-tetramethyl-9H-xanthene-3,6-diamine]
Inhibition of EcSecA N68 ATPase, initial screening ([6]; 100 μM, FIG. 1): weak or no activity

O=C(O)c1ccccc1-c1c2ccc(=O)c(I)c-2oc2c(I)c(O)ccc12 [DI, Diiodofluorescein, reference compound]
IC50 ([6]; read-out: IC50, EcN68 SecA ATPase (unregulated ATPase)): 30 µM

CC[C@H]1OC(=O)[C@H](C)[C@@H](O[C@H]2C[C@@](C)(OC)[C@@H](O)[C@H](C)O2)[C@H](C)[C@@H](O[C@@H]2O[C@H](C)C[C@H](N(C)C)[C@H]2O)[C@](C)(O)C[C@@H](C)C(=O)[C@H](C)[C@@H](O)[C@]1(C)O [Erythromycin]
MIC [1]: 0.3 mg/L (≈ 0.409 µM)
MIC [2, 20]: > 500 mg/L
MIC [2, 21]: > 1250 mg/L
MIC [2, 24]: > 100 µM

NC[C@H]1O[C@H](O[C@H]2[C@H](O)[C@@H](O[C@H]3O[C@H](CO)[C@@H](O)[C@H](N)[C@H]3O)[C@H](N)C[C@@H]2N)[C@H](O)[C@@H](O)[C@@H]1O [Kanamycin]
MIC [2, 21]: 1000 mg/L
MIC [2, 24]: > 100 µM

CCn1cc(C(=O)O)c(=O)c2cc(F)c(N3CCNCC3)cc21 [Norfloxacin]
MIC [2, 21]: 250 mg/L

CO[C@H]1/C=C/O[C@@]2(C)Oc3c(C)c(O)c4c(O)c(c(/C=N/N5CCN(C)CC5)c(O)c4c3C2=O)NC(=O)/C(C)=C\C=C\[C@H](C)[C@H](O)[C@@H](C)[C@@H](O)[C@@H](C)[C@H](OC(C)=O)[C@@H]1C [Rifampicin]
MIC [2, 21]: > 1000 mg/L

CSc1nc(Sc2nnc(-c3cc(C(F)(F)F)cc(C(F)(F)F)c3)[nH]2)cc(Sc2nnc(-c3cc(C(F)(F)F)cc(C(F)(F)F)c3)[nH]2)n1 [SCA-21]
Bactericidal (killing) effect with over expression of efflux pumps [7]: not attenuated
MIC (bacteriostatic) with over expression of efflux pumps [7]: did not increase
IC50 [8]: 21 µM
IC50 [9]: > 100 µM
IC50 [10]: 2 µM
IC50 [6]: 18 µM
IC50 [11]: 1.5 µM
IC50 [12]: 1 µM
MIC [1]: 3 mg/L (≈ 4.01 µM)
IC50 [13]: 45 µM
IC50 [14]: 2 µM
MIC [15]: 0.39 µM (≈ 0.292 µg/mL)
IC50 [16]: 20 µM
IC50 ([4]; IC50, Ion Channel activity, BsSecA, Table 1): 2.6 µM
IC50 [5]: 2.4 µM
IC50 [17]: 1.6 µM
IC50 [18]: 32 µM
IC50 [19]: 43 µM
MIC [2, 20]: 1.5 mg/L
MIC [2, 24]: 1.5 µM

CN(C)[C@@H]1C(O)=C(C(N)=O)C(=O)[C@@]2(O)C(O)=C3C(=O)c4c(O)cccc4[C@@](C)(O)[C@H]3C[C@@H]12 [Tetracycline]
MIC [1]: 0.1 mg/L (≈ 0.225 µM)
MIC [2, 20]: 200 mg/L
MIC [2, 21]: 62.5 mg/L
MIC [2, 24]: > 100 µM

CN[C@H](CC(C)C)C(=O)N[C@H]1C(=O)N[C@@H](CC(N)=O)C(=O)N[C@H]2C(=O)N[C@H]3C(=O)N[C@H](C(=O)N[C@H](C(=O)O)c4cc(O)cc(O)c4-c4cc3ccc4O)[C@H](O)c3ccc(c(Cl)c3)Oc3cc2cc(c3O[C@@H]2O[C@H](CO)[C@@H](O)[C@H](O)[C@H]2O[C@H]2C[C@](C)(N)[C@H](O)[C@H](C)O2)Oc2ccc(cc2Cl)[C@H]1O [Vancomycin]
MIC [1]: 2.5 mg/L (≈ 1.73 µM)
MIC ([2]; MU50, read-out: Bacteriostatic MIC95, S. aureus Mu50): 5 mg/L
MIC ([2]; MU50, read-out: Bacteriostatic effect MIC, S. aureus Mu50): 7.8 mg/L
MIC [2, 24]: 5 µM

Gentamycin
Bacteriostatic MIC95, B. anthracis Sterne ([1]; Table 2): 5 mg/L
Bacteriostatic MIC95, S. aureus Mu50 [2]: >500 mg/L

Polymyxin B
Bacteriostatic MIC95, B. anthracis Sterne ([1]; Table 2): 10 mg/L
Bacteriostatic MIC95, S. aureus Mu50 [2]: 15 mg/L
Bacteriostatic effect MIC, S. aureus Mu50 ([2]; Table 10 and text of Example 4): 31.3 mg/L
